Results on four molecules are retold here after patent US8513226B2, “Simultaneous method for the preparation of a mixture of 3-acetoxy-17-acetamido-16-formyl-androst-5,17-diene and 3-acetoxy-2'-chloro-5-androsteno[17,16-b]pyridine” (Council of Scientific and Industrial Research, priority 2008, dated 2013).

SMILES strings stand for the structures. “Also recorded” adds a separate entry of the source. Like-named read-outs stand apart in the source and are kept apart here.

One data set has as its target H^+,K^+-ATPase (Sus scrofa, UniProt P19156). Put plainly: H+,K+-ATPase (gastric proton pump) inhibition in pig gastric membranes. The data set is classed as biochemical. The conditions noted are these: for IC50: read-out: calculated IC50, H^+,K^+-ATPase. How it is done: Pig gastric membranes enriched in apical and tubulovesicular membranes were prepared as described in the literature (S Bandopadhyay, P K Das, M V Wright, J Nandi, D Bhattacharya & T K Ray, J. Biol. Chem. 1987, 262, 5664). The fundic mucosal regions of pig stomach were desquamated and scrapped to collect oxyntic cell-riched fractions. The homogenized tissue was centrifuged at 5000×g for 8 min, the supernatant was layered over 37% sucrose and centrifuged at 100,000×g for 4½ h. The major membrane band appeared in the interface was collected, diluted with homogenizing buffer and recentrifuged at 110,000×g for 90 min. The pellet containing H^+,K^+-ATPase rich apical and tubulovesicular membranes was suspended in appropriate buffer and stored at −80° C. for use as the source of enzyme.
The H^+,K^+-ATPase activity was measured at 37° C. in a 1 ml reaction mixture containing 2 mM MgCl2, 2 mM ATP, 10 mM PIPES (pH 6.8), 20 mM KCl and 10-15 μg membrane protein. […] After incubation for 10 min, the reaction was terminated by addition of 1 ml ice-chilled TCA (14%).
K^+-stimulated activity, referred to as H^+,K^+-ATPase, was calculated as the difference between the activity in presence of Mg^+2 plus K^+ and basal activity (Mg^+-ATPase) in presence of Mg^+2 alone. […] The liberated inorganic phosphate was quantitated according to a reported procedure (H Sanui, Anal. Biochem. 1974, 60, 489) and the effects of 4 and 5 were assessed. The effects are quantitated in terms of percent inhibition of H^+,K^+-ATPase activity, and compared with that of omeprazole.

Data set [1] deals with rabbit gastric parietal cells. Kind of data set: Histamine-stimulated acid secretion (aminopyrine uptake) in gastric parietal cells. The class given is cell-based. The conditions noted are these: histamine 0.1 mM.
Method: (§1) Briefly, the technique involves high-pressure perfusion of the stomach in live animal with oxygenated PBS, stripping and mincing the mucosa followed by 2-step proteolytic digestion at 37° C., first with a mixture of protease (0.1 mg/ml) and pronase (1 mg/ml) for 15 min and then the pellet obtained therefrom with collagenase (1 mg/ml) for 30 min. The washed cell pellet containing majority of the gastric cells was layered on top of a two-step gradient of Nycodenz (density 1.05 and 1.075 g/ml) and centrifuged at 150×g for 10 min. Parietal cells enriching in between density of 1.05 and 1.075 interface were collected, washed 3 times with respiratory medium and used for the study. The PC preparations were nearly 90% pure and viable.
(§2) The [^14C]-aminopyrine (115 μCi/mM) was added to the suspension at a concentration of 0.1 mCi/ml, and incubation was continued for another 10 min. One-milliliter aliquots of such PC suspension (˜5×10^6 cells) were further incubated in the presence and the absence of histamine (0.1 mM) for 20 min at 37° C. with slow shaking and oxygen top gassing. At the end of the incubation, the PC suspensions were centrifuged, supernatant carefully aspired off and the pellets solubilized in scintillation fluid containing Triton X-100. The resulting solution was counted in a liquid scintillation counter. The aminopyrine accumulation was determined as the ratio of intra- to extracellular aminopyrine according to Mazzeo et al. (A R Mazzeo, J Nandi & R A Levine, Am. J. Physiol. 1988, 254, G57).
The test system of data set [2] is rabbit gastric parietal cells. Kind of data set: Basal acid secretion (aminopyrine uptake) in gastric parietal cells. The data set is classed as cell-based. As to conditions: Oryctolagus cuniculus.
Method: as §1, §2
Data set [3] concerns cold restraint stress ulcer in rats. Put plainly: Cold restraint stress induced ulceration. The data set is classed as in vivo, rat. The conditions noted are these: for protection of ulceration induced by cold restraint stress: 50 mg/kg body weight. As to the method:
Adult rats of either sex, weighing about 200 g were fasted for 24 h with free access to water. Compound 4 (in 0.4% hydroxypropylmethylcellulose, HPMC) were administered 45 min before immobilizing the animals. The rats were immobilized in the restraint cage at 4 °C for 4 h and were sacrificed immediately after the restraint period according to the method of Senay and Levine (E C Senay & R J Levine, Proc. Soc. Exp. Biol. Med. 1967, 124, 1221). The abdomen was cut opened, stomach taken out and incised along the greater curvature to observe the gastric lesions. The ulceration was rated and the ulcer index (UI) scored as described in Wagner et al. (K Wagner, J Nandi, R L King & R A Levine, Dig. Dis. Sci. 1995, 40, 134), the effect of compound 4 being expressed graphically as a function of ulcer index and the result was further expressed as the percent protection of the ulcer formation in comparison to the untreated control group (FIG. 4).

Data set [4] concerns indomethacin-induced ulcer in rat. Put plainly: Indomethacin-induced ulcer in rat. The class given is in vivo. As to conditions: for protection of indomethacin induced ulcer formation: p.o. 45 min before indomethacin 15 mg/kg p.o.
Method: The animals were kept fasting for 24 h before initiating the experiment, drinking water being available ad libitum. The animals were allotted to three groups, each group comprising of six rats. […] Six hours following the administration of indomethacin, the animals were killed, stomachs removed and opened along the greater curvature.
The next data set concerns pylorus-ligated rats. Kind of data set: Gastric secretion in pylorus-ligated rats. The data set is classed as in vivo, rat. As to the method: The pylorus of each rat was ligated under anesthesia according to the method of Shay et. al. (H Shay, S A Komarov, S S Fels, D Merange, M Grunstein & H Siplet, Gastroenterol. 1945, 4, 43). Each of the animals were then allowed to stand abstained from food and water in a cage. After 4 h, the animals were sacrificed and the stomachs were removed. The gastric contents were collected and centrifuged, and the secretory volume, pH and acid content of the supernatants were measured. The acid content was measured by titrating to pH 7.0 with 0.01 N NaOH using an autotitrator (Metrohm). The total acid content of the drug treated groups was compared to that of control groups, presented graphically in FIG. 5 and thereby, the reduction percentage of acid content was calculated. Compound 4 was suspended in 0.4% HPMC and administered orally at graded dose (10, 20, 50 and 100 mg/kg dose) in different groups 45 min before the ligation. In the control group, the vehicle (0.4% HPMC) was administered.

The next data set concerns Swiss albino mice. Kind of data set: Single-dose acute toxicity evaluation. The class given is in vivo. The conditions noted are these: 1 g/kg body weight orally, 15 days observation. From the text: The Compound 4 was checked for mortality of the Swiss albino mice. Five animals of Swiss albino mice strain were used for this purpose. The dosage up to 1 g/kg body weight was given orally per mice and the animals kept up to 15 days under observation. It was observed that the mice were not affected at the dose level of 1 g/kg body weight of Compound 4.

Sequence of H^+,K^+-ATPase (P19156 whole entry): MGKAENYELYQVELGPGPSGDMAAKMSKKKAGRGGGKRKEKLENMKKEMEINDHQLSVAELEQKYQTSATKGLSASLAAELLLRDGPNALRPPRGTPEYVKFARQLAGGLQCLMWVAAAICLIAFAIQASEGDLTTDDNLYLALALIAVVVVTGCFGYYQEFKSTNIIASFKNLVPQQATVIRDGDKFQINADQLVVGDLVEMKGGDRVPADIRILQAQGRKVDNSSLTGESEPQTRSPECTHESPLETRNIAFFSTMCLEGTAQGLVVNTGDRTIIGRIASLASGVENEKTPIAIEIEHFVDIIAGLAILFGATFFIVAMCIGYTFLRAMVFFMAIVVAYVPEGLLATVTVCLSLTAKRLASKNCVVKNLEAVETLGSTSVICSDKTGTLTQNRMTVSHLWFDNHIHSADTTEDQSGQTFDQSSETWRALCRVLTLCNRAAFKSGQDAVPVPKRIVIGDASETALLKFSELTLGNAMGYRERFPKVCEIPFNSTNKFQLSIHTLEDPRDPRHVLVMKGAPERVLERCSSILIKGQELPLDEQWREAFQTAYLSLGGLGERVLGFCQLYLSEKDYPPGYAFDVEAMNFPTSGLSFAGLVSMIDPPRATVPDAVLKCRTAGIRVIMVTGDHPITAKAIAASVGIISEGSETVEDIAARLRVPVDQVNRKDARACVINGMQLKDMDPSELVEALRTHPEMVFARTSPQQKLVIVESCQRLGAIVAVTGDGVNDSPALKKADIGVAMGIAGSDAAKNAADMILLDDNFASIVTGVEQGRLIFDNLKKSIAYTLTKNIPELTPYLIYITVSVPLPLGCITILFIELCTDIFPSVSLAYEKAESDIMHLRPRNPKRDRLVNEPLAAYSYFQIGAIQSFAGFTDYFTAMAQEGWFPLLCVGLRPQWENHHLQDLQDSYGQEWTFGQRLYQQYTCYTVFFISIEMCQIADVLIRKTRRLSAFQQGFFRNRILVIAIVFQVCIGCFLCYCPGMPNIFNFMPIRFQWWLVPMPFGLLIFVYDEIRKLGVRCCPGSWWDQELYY
Sequence of H^+,K^+-ATPase (P18434 whole entry partner): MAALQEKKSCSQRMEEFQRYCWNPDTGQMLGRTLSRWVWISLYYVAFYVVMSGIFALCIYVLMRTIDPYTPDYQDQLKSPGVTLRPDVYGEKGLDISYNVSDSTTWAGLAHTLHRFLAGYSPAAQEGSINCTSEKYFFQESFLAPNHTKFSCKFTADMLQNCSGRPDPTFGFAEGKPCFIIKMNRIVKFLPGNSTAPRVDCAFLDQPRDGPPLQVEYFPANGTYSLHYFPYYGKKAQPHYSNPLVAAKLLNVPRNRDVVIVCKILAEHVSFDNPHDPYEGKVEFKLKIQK

In the case of `CC(=O)O[C@H]1CC[C@@]2(C)C(=CC[C@@H]3[C@@H]2CC[C@]2(C)c4nc(Cl)ccc4C[C@@H]32)C1` [Compound 5, 3-acetoxy-2′-chloro-5-androsteno[17,16-b]pyridine], the “inhibition of H^+,K^+-ATPase (in words)” value at H^+,K^+-ATPase was “nominal”. In addition, the “% Inhibition H^+, K^+-ATPase” value on H^+,K^+-ATPase (concentration 1 μM) is listed as 2%; on H^+,K^+-ATPase (concentration 10 μM), 37%; at H^+,K^+-ATPase (concentration 100 μM), 57%.

What is called IC50 is the concentration that gives 50% inhibition. In general, inhibition refers to the percentage by which the read-out fell short of the control. As for `CC(=O)NC1=C(C=O)CC2C3CC=C4CC(OC(C)=O)CCC4(C)C3CCC12C` (stereo not shown) [Compound 4, 3-acetoxy-17-acetamido-16-formyl-androst-5,17-diene], the IC50 was about 130 µM in data set [1] (Oryctolagus cuniculus, read-out: IC50, inhibition of histamine-stimulated acid secretion) and 18 µM on H^+,K^+-ATPase. Moreover, the “activity compared with cimetidine in inhibiting histamine-stimulated secretion” value in data set [1] was “IC50 value comparable to cimetidine; also recorded: almost equiactive as compared with cimetidine”. Besides, at H^+,K^+-ATPase, the “inhibition of H^+,K^+-ATPase (in words)” value is recorded as “dose dependent”. Further, at H^+,K^+-ATPase, the “nature of inhibition of H^+,K^+-ATPase” value is “irreversible”. Further, the “Observation (nature of inhibition)” value on H^+,K^+-ATPase (10 μM, different protein to inhibitor ratio) was “Irreversible”; on H^+,K^+-ATPase (10 μM, function of preincubation time), “Irreversible”. Further, the inhibition at 10 µM came out at 2% at H^+,K^+-ATPase (10 μM, preincubation time 0 min, read-out: % Inhibition of H^+, K^+-ATPase); 56% at H^+,K^+-ATPase (10 μM, preincubation time 30 min, read-out: % Inhibition of H^+, K^+-ATPase); 75% on H^+,K^+-ATPase (10 μM, protein concentration 5 μg/assay, read-out: % Inhibition of H^+, K^+-ATPase); 57% on H^+,K^+-ATPase (10 μM, protein concentration 20 μg/assay, read-out: % Inhibition of H^+, K^+-ATPase); 47% on H^+,K^+-ATPase (concentration 10 μM, read-out: % Inhibition H^+, K^+-ATPase). At H^+,K^+-ATPase (concentration 1 μM), this molecule displayed an inhibition at 1 µM of 7%. The same molecule gave an inhibition at 5 µM against H^+,K^+-ATPase (concentration 5 μM) of 20%. The molecule also returned an inhibition at 100 µM against H^+,K^+-ATPase (concentration 100 μM) of 75%. The inhibition at 300 µM in data set [2] (300 μM (highest concentration)) was about 10%. Also, the “protection of ulceration induced by cold restraint stress” value in data set [3] turned out to be 54%. Moreover, the “antiulcer activity in cold restraint stress ulcer model (in words)” value in data set [3] (50 mg/kg body wt.) is recorded as “potent antiulcer activity”. Moreover, in data set [4] (10-50 mg/kg b.w.), the “anti ulcer activity in indomethacin-induced ulcer model (in words)” value is “potent anti ulcer activity”. Moreover, the “protection of indomethacin induced ulcer formation” value in data set [4] is recorded as about 75%. In addition, the “inhibition of acid output” value in the data set with pylorus-ligated rats (50 mg/kg) is about 33%; in the data set with pylorus-ligated rats (50-100 mg/kg, oral) it was about 30%. Also, the “mortality and behavioral abnormality, single-dose acute toxicity” value in the data set with Swiss albino mice was “No mortality and behavioral abnormality; also recorded: did not show acute toxicity”.

As to `CN/C(=N/CCSCc1nc[nH]c1C)NC#N` [Cimetidine, reference compound], the inhibition at 200 µM in data set [2] (200 μM) is about 10%. Also, the “protection of ulceration induced by cold restraint stress” value in data set [3] stood at 86%. The “inhibition of acid output” value with pylorus-ligated rats (50 mg/kg) was about 80%.

At H^+,K^+-ATPase (concentration 3 μM), `COc1ccc2[nH]c([S+]([O-])Cc3ncc(C)c(OC)c3C)nc2c1` (stereo not shown) [Omeprazole, 5-methoxy-2-[(4-methoxy-3,5-dimethyl-2-pyridinyl)-methyl]sulfinyl-1H-benzimidazole, reference compound] showed an inhibition at 3 µM of 20%. At H^+,K^+-ATPase (concentration 30 μM), the inhibition at 30 µM worked out at 80%. Also, the “inhibition of H^+,K^+-ATPase” value against H^+,K^+-ATPase (concentration range 3 μM and 30 μM) is on record as 20-80%. Further, the “potency relative to 4 (H^+,K^+-ATPase)” value at H^+,K^+-ATPase (from IC50 values) is recorded as “about three times more potent than 4”. Besides, the IC50 on H^+,K^+-ATPase was about 6 µM. For the same molecule, in data set [2] (20 μM), the inhibition at 20 µM is 80 to 90%. For the same molecule, the “protection of indomethacin induced ulcer formation” value in data set [4] is listed as about 90%.
